Seven compounds from patent US20240368123A1, “AROMATIC RING-CONTAINING BIOLOGICAL ANTAGONIST, AND PREPARATION METHOD THEREFOR AND USE THEREOF” (SHANGHAI HANSOH BIOMEDICAL CO., LTD., priority 2021, published 2024) can be followed below.

One data set concerns the target T1, AT1 receptors (Homo sapiens, UniProt P30556).
T1 construct: host or cells: HEK293
T1 sequence (P30556 1-359): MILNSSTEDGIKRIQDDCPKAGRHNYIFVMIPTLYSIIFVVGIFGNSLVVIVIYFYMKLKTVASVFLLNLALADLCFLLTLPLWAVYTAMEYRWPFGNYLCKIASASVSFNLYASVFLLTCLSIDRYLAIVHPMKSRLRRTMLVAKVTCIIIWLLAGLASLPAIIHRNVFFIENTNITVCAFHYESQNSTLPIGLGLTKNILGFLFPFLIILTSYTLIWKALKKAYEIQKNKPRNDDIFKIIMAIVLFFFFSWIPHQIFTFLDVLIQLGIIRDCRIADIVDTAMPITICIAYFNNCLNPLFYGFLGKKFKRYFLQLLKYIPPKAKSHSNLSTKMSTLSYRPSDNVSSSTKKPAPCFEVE
Description: Effect on calcium current in cells stably expressing AT1 receptors (FLIPR, antagonist mode). Type of data set: cell-based. Conditions: HEK293-AT1 cells, Fluo-8 AM, FLIPR Tetra; read-out: IC50 values of compounds on calcium current in cells stably expressing AT1 receptors. From the text:
Test Example 1. Determination of the Effect of the Compounds of the Present Invention on Calcium Current in Cells Stably Expressing AT1 Receptors
Antagonistic effect of test compounds on HEK293-AT1 cell activity
• DMEM, high glucose (Gibco: 12100); • Fetal bovine serum (Biosera: FB-1058/500); • P/S (Biosera: XC-A4122); • 5× Matrigel (Corning: 354230); • HBSS (Sigma: H1387); • HEPES (Invitrogen: 15630080); • Fluo-8 AM (AAT Bioquest: 21080); • Probenecid (Sigma: P8761); • Pluronic F-127 (Sigma: P2443-250G); • Angiotensin III TFA (MCE: HY-113035A); • Irbesartan (MCE: HY—B0202); • 1000× Fluo-8 AM (2 mM): Fluo-8 AM was dissolved in DMSO, the mixture was shaken for 1-2 min, sub-packaged and stored at −20° C.; • Complete culture medium: DMEM+10% FBS+1×P/S; • Cell seeding medium: DMEM+10% FBS+1×PS; • Experimental buffer 1: 1×HBSS+20 mM HEPES+1 mM Probenecid+0.025% Pluronic F-127; • Experimental buffer 2: 1×HBSS+20 mM HEPES+0.075% Pluronic F-127; • 1× Matrigel: 5× Matrigel was diluted with DMEM; • Cell line: HDB HEK293-AT1.
• 1) HEK293-AT1 cell line was cultured in complete culture medium at 37° C., 5% CO2 to 70%-90% confluence. • 2) the 384-well cell plate was coated with 1× Matrigel with 5 μL/well at room temperature for 10 to 30 min. • 3) the cells were digested and resuspended in cell seeding medium, inoculation was performed at 8,000 cells/well/20 μL in a 384-well cell culture plate, and the cells were cultured at 37° C., 5% CO2 for 24 h. • 4) the cell culture plate was taken out of the CO2 incubator and equilibrated at room temperature for 10 min. • 5) 1000× Fluo-8 AM was taken and diluted to 1× Fluo-8 AM with experimental buffer 1 that has been equilibrated to room temperature, with a concentration of 2 μM. • 6) the culture medium was removed from the cell culture plate, 20 μL of 1× Fluo-8 AM was added to each well, the mixture was centrifuged at 300 rpm for 60 seconds at room temperature, and incubated at room temperature in the dark for 1 h. • 7) positive control compound and test compound working solution (3×) were formulated: • (1) instrument Bravo was used to dilute the compound to 11 concentration points on the 384-well Echo compound plate (LABCYTE: LP-0200); • (2) instrument ECHO was used to transfer 90 nL of compound per well (compound storage concentration, such as the highest concentration point 10 mM) to the 384-well compound plate (PE: 6008590); • (3) Multidrop Combi was used to add 30 μL of experimental buffer 2 to the 384-well compound plate (PE: 6008590), the positive control compound and test compound were diluted to 30 μM (3×), and placed at room temperature until use. • 8) FLIPR Tetra was used to add 10 μL of diluted 3× compound into the experimental well of the corresponding 384-well cell plate, the compound and cells were incubated for 10 min at room temperature, then 10 μL of diluted 4× agonist was added, and the data was read and collected at the same time.
FLIPR Tetra was used to read and collect the fluorescence signal value (RFU). The maximum RFU value was used to calculate the percent activation data based on the readings of the Low control (DMSO control) and High control (100 nM positive compound) experimental groups {% activation rate=(RFUsample−RFUlow control)/(RFUhigh control−RFUlow control)×100}. The concentration of the test compound was 11 concentrations after diluting the reaction system 3 times, ranging from 10 uM to 0.17 nM.

Data set [1] can be described thus: Rat pharmacokinetic evaluation test, oral administration. The following applies: male, SD rats, p.o. 5 mg/kg, plasma. The format is in vivo. As for the experimental part:
SD rats were used as test animals to study the pharmacokinetic behavior of the compounds of the present invention in the rat body (plasma) after oral administration at a dose of 5 mg/kg.
3 SD rats/group, male, from Shanghai Jiesijie Experimental Animal Co., Ltd., animal production license number (SCXK (Shanghai) 2013-0006 N0.311620400001794).
• 0.5% CMC-Na (1% Tween80) was dissolved with ultrasound, and formulated into a clear solution or homogeneous suspension.
• p.o. respectively after the rats were fasted overnight; • the p.o. dose was 5 mg/kg and the administration volume was 10 mL/kg.
After oral administration of rats, 0.2 mL of blood was collected from the jugular vein at 0.25 h, 0.5 h, 1.0 h, 2.0 h, and 4.0 h, placed in an EDTA-2K test tube, centrifuged at 6000 rpm for 6 min at 4° C. to separate plasma which was stored at −80° C.; the rats can eat 4 h after administration.
• 1) 160 μL of acetonitrile was added to 40 μL of plasma sample for precipitation, mixed and centrifuged at 3500×g for 5 to 20 min. • 2) the treated supernatant solution was taken and subjected to LC/MS/MS to analyze the concentrations of the test compounds. LC/MS/MS analysis instrument: AB Sciex API 4000 Qtrap.
• Liquid phase conditions: Shimadzu LC-20AD pump • chromatographic column: AgilentZORBAX XDB-C18 (50×2.1 mm, 3.5 μm) mobile phase: liquid A was 0.1% aqueous formic acid solution, liquid B was acetonitrile • flow rate: 0.4 mL/min • Elution time: 0-4.0 min, the eluent was as follows:
The main pharmacokinetic parameters were calculated using WinNonlin 6.1.

Take `CCCCC1=NC2(CCCC2)C(=O)N1Cc1ccc(-c2ccccc2S(=O)(=O)Nc2noc(C)c2Cl)c(COCC2CC2)c1` [Example 85, 4′-((2-butyl-4-oxo-1,3-diazospiro[4.4]non-1-en-3-yl)methyl)-N-(4-chloro-5-methylisoxazol-3-yl)-2′-((cyclopropylmethoxy)methyl)-[1,1′-biphenyl]-2-sulfonamide]: the IC50 on AT1 receptors was found to be 5.2 nM.
The same measure, in the same setting: the result for `CCCCC1=NC2(CCCC2)C(=O)N1Cc1ccc(-c2ccccc2S(=O)(=O)Nc2noc(C)c2Cl)c(OCCC)c1` [Example 55, 4′-((2-butyl-4-oxo-1,3-diazaspiro[4.4]non-1-en-3-yl)methyl)-N-(4-chloro-5-methylisoxazol-3-yl)-2′-propoxy-[1,1′-biphenyl]-2-sulfonamide] reads 3.7 nM.
With `CCCCC1=NC2(CCCC2)C(=O)N1Cc1ccc(-c2ccccc2S(=O)(=O)Nc2noc(C)c2C)c(COCC2CC2)c1` [Example 14, 4′-((2-butyl-4-oxo-1,3-diazaspiro[4.4]non-1-en-3-yl)methyl)-2′-((cyclopropylmethoxy)methyl)-N-(4,5-dimethylisoxazol-3-yl)-[1,1′-biphenyl]-2-sulfonamide], in data set [1], the AUC(0-inf) amounted to 11300 ng·h/mL, the Cmax was determined as 2320 ng/mL and the Tmax amounted to 0.5 h. The MRT inf in data set [1] (read-out: MRT0-∞) worked out at 5.3 h. Further, on AT1 receptors, the IC50 amounted to 6.9 nM.
As for `CCCCC1=NC2(CCCC2)C(=O)N1Cc1ccc(-c2ccccc2S(=O)(=O)Nc2noc(C)c2Cl)c(COC2CC2)c1` [Example 52, 4′-((2-butyl-4-oxo-1,3-diazaspiro[4.4]non-1-en-3-yl)methyl)-N-(4-chloro-5-methylisoxazol-3-yl)-2′-(cyclopropoxymethyl)-[1,1′-biphenyl]-2-sulfonamide], at AT1 receptors, the half-inhibitory concentration (IC50) came to 8.6 nM.
The same measure, in the same setting: with `CCCCC1=NC2(CCCC2)C(=O)N1Cc1ccc(-c2ccccc2S(=O)(=O)Nc2noc(C)c2Cl)c(COC(C)C)c1` [Example 72, 4′-((2-butyl-4-oxo-1,3-diazaspiro[4.4]non-1-en-3-yl)methyl)-N-(4-chloro-5-methylisoxazol-3-yl)-2′-(isopropoxymethyl)-[1,1′-biphenyl]-2-sulfonamide] the figure was 6.1 nM.
On the same count and under the same terms, with `CCCCC1=NC2(CCCC2)C(=O)N1Cc1ccc(-c2ccccc2S(=O)(=O)Nc2noc(C)c2Cl)c(COC)c1` [Example 53, 4′-((2-butyl-4-oxo-1,3-diazaspiro[4.4]non-1-en-3-yl)methyl)-N-(4-chloro-5-methylisoxazol-3-yl)-2′-(methoxymethyl)-[1,1′-biphenyl]-2-sulfonamide] the figure was 9.1 nM.
On the same count and under the same terms, the result for `CCCCC1=NC2(CCCC2)C(=O)N1Cc1ccc(-c2ccccc2S(=O)(=O)Nc2noc(C)c2C)c(COC2CC2)c1` [Example 13, 4′-((2-butyl-4-oxo-1,3-diazaspiro[4.4]non-1-en-3-yl)methyl)-2′-(cyclopropoxymethyl)-N-(4,5-dimethylisoxazol-3-yl)-[1,1′-biphenyl]-2-sulfonamide] reads 10 nM.

In general, IC50 refers to the concentration that gives 50% inhibition. In general, AUC(0-inf) refers to total exposure, with the tail of the curve extrapolated. The Cmax is the peak of the concentration-time curve. As usually defined, the Tmax is the time at which the peak concentration occurs.
